Assay results from ChEMBL document CHEMBL1240439, “Synthesis and docking studies of novel benzopyran-2-ones with anticancer activity” (2010).
The source made the active and inactive calls.

What was measured:
Format in all cases: functional
OVCAR-8 = assay: Cytotoxicity against human OVCAR8 cells assessed as cell growth at 10 uM after 48 hrs by sulforhodamine B assay
MDA-MB-435 = assay: Cytotoxicity against human MDA-MB-435 cells assessed as cell growth at 10 uM after 48 hrs by sulforhodamine B assay
SR = assay: Cytotoxicity against human SR cells assessed as cell growth at 10 uM after 48 hrs by sulforhodamine B assay
SF-295 = assay: Cytotoxicity against human SF295 cells assessed as cell growth at 10 uM after 48 hrs by sulforhodamine B assay
TK-10 = assay: Cytotoxicity against human TK10 cells assessed as cell growth at 10 uM after 48 hrs by sulforhodamine B assay
SK-MEL-5 = assay: Cytotoxicity against human SK-MEL-5 cells assessed as cell growth at 10 uM after 48 hrs by sulforhodamine B assay
Hs-578T = assay: Cytotoxicity against human Hs 578T cells assessed as cell growth at 10 uM after 48 hrs by sulforhodamine B assay
OVCAR-3 = assay: Cytotoxicity against human OVCAR-3 cells assessed as cell growth at 10 uM after 48 hrs by sulforhodamine B assay
SN12C = assay: Cytotoxicity against human SN12C cells assessed as cell growth at 10 uM after 48 hrs by sulforhodamine B assay
HOP-92 = assay: Cytotoxicity against human HOP92 cells assessed as cell growth at 10 uM after 48 hrs by sulforhodamine B assay
RXF 393 = assay: Cytotoxicity against human RXF393 cells assessed as cell growth at 10 uM after 48 hrs by sulforhodamine B assay
PC-3 = assay: Cytotoxicity against human PC3 cells assessed as cell growth at 10 uM after 48 hrs by sulforhodamine B assay
LOX IMVI = assay: Cytotoxicity against human LOXIMVI cells assessed as cell growth at 10 uM after 48 hrs by sulforhodamine B assay
HCC 2998 = assay: Cytotoxicity against human HCC2998 cells assessed as cell growth at 10 uM after 48 hrs by sulforhodamine B assay
SW-620 = assay: Cytotoxicity against human SW620 cells assessed as cell growth at 10 uM after 48 hrs by sulforhodamine B assay
NCI-H322M = assay: Cytotoxicity against human NCI-H322M cells assessed as cell growth at 10 uM after 48 hrs by sulforhodamine B assay
SK-MEL-28 = assay: Cytotoxicity against human SK-MEL-28 cells assessed as cell growth at 10 uM after 48 hrs by sulforhodamine B assay
A549 = assay: Cytotoxicity against human A549 cells assessed as cell growth at 10 uM after 48 hrs by sulforhodamine B assay
RPMI-8226 = assay: Cytotoxicity against human RPMI8226 cells assessed as cell growth at 10 uM after 48 hrs by sulforhodamine B assay
CCRF-CEM = assay: Cytotoxicity against human CCRF-CEM cells assessed as cell growth at 10 uM after 48 hrs by sulforhodamine B assay
EKVX = assay: Cytotoxicity against human EKVX cells assessed as cell growth at 10 uM after 48 hrs by sulforhodamine B assay
U-251 = assay: Cytotoxicity against human U251 cells assessed as cell growth at 10 uM after 48 hrs by sulforhodamine B assay
HCT-15 = assay: Cytotoxicity against human HCT15 cells assessed as cell growth at 10 uM after 48 hrs by sulforhodamine B assay
HT-29 = assay: Cytotoxicity against human HT-29 cells assessed as cell growth at 10 uM after 48 hrs by sulforhodamine B assay
MCF7 = assay: Cytotoxicity against human MCF7 cells assessed as cell growth at 10 uM after 48 hrs by sulforhodamine B assay
SNB-19 = assay: Cytotoxicity against human SNB19 cells assessed as cell growth at 10 uM after 48 hrs by sulforhodamine B assay
IGROV-1 = assay: Cytotoxicity against human IGROV1 cells assessed as cell growth at 10 uM after 48 hrs by sulforhodamine B assay
SK-OV-3 = assay: Cytotoxicity against human SKOV3 cells assessed as cell growth at 10 uM after 48 hrs by sulforhodamine B assay
SK-MEL-2 = assay: Cytotoxicity against human SK-MEL-2 cells assessed as cell growth at 10 uM after 48 hrs by sulforhodamine B assay
COLO 205 = assay: Cytotoxicity against human COLO205 cells assessed as cell growth at 10 uM after 48 hrs by sulforhodamine B assay
K562 = assay: Cytotoxicity against human K562 cells assessed as cell growth at 10 uM after 48 hrs by sulforhodamine B assay
SNB-75 = assay: Cytotoxicity against human SNB75 cells assessed as cell growth at 10 uM after 48 hrs by sulforhodamine B assay
SF-268 = assay: Cytotoxicity against human SF268 cells assessed as cell growth at 10 uM after 48 hrs by sulforhodamine B assay
MDA-MB-468 = assay: Cytotoxicity against human MDA-MB-468 cells assessed as cell growth at 10 uM after 48 hrs by sulforhodamine B assay
HOP-62 = assay: Cytotoxicity against human HOP62 cells assessed as cell growth at 10 uM after 48 hrs by sulforhodamine B assay
MOLT-4 = assay: Cytotoxicity against human MOLT4 cells assessed as cell growth at 10 uM after 48 hrs by sulforhodamine B assay
MDA-MB-231 = assay: Cytotoxicity against human MDA-MB-231 cells assessed as cell growth at 10 uM after 48 hrs by sulforhodamine B assay
UACC-257 = assay: Cytotoxicity against human UACC257 cells assessed as cell growth at 10 uM after 48 hrs by sulforhodamine B assay
NCI-H460 = assay: Cytotoxicity against human NCI-H460 cells assessed as cell growth at 10 uM after 48 hrs by sulforhodamine B assay
SF-539 = assay: Cytotoxicity against human SF539 cells assessed as cell growth at 10 uM after 48 hrs by sulforhodamine B assay
KM12 = assay: Cytotoxicity against human KM12 cells assessed as cell growth at 10 uM after 48 hrs by sulforhodamine B assay
HCT-116 = assay: Cytotoxicity against human HCT116 cells assessed as cell growth at 10 uM after 48 hrs by sulforhodamine B assay
OVCAR-4 = assay: Cytotoxicity against human OVCAR4 cells assessed as cell growth at 10 uM after 48 hrs by sulforhodamine B assay
Malme-3M = assay: Cytotoxicity against human MALME-3M cells assessed as cell growth at 10 uM after 48 hrs by sulforhodamine B assay
NCI-H226 = assay: Cytotoxicity against human NCI-H226 cells assessed as cell growth at 10 uM after 48 hrs by sulforhodamine B assay
M14 = assay: Cytotoxicity against human M14 cells assessed as cell growth at 10 uM after 48 hrs by sulforhodamine B assay
A498 = assay: Cytotoxicity against human A498 cells assessed as cell growth at 10 uM after 48 hrs by sulforhodamine B assay
UO-31 = assay: Cytotoxicity against human UO31 cells assessed as cell growth at 10 uM after 48 hrs by sulforhodamine B assay
NCI-H23 = assay: Cytotoxicity against human NCI-H23 cells assessed as cell growth at 10 uM after 48 hrs by sulforhodamine B assay
786-0 = assay: Cytotoxicity against human 786-0 cells assessed as cell growth at 10 uM after 48 hrs by sulforhodamine B assay
HL-60(TB) = assay: Cytotoxicity against human HL-60(TB) cells assessed as cell growth at 10 uM after 48 hrs by sulforhodamine B assay
NCI-H522 = assay: Cytotoxicity against human NCI-H522 cells assessed as cell growth at 10 uM after 48 hrs by sulforhodamine B assay
BT-549 = assay: Cytotoxicity against human BT549 cells assessed as cell growth at 10 uM after 48 hrs by sulforhodamine B assay
OVCAR-5 = assay: Cytotoxicity against human OVCAR5 cells assessed as cell growth at 10 uM after 48 hrs by sulforhodamine B assay
ACHN = assay: Cytotoxicity against human ACHN cells assessed as cell growth at 10 uM after 48 hrs by sulforhodamine B assay
DU-145 = assay: Cytotoxicity against human DU145 cells assessed as cell growth at 10 uM after 48 hrs by sulforhodamine B assay
T47D = assay: Cytotoxicity against human T47D cells assessed as cell growth at 10 uM after 48 hrs by sulforhodamine B assay
UACC-62 = assay: Cytotoxicity against human UACC62 cells assessed as cell growth at 10 uM after 48 hrs by sulforhodamine B assay

Measured: Activity

Cc1c(OCc2nnc(S)o2)ccc2c(-c3ccccc3)cc(=O)oc12
inactive: all assays above

CCCc1cc(=O)oc2c(C)c(OCC(=O)n3nc(C)cc3C)ccc12
inactive: all assays above
